How the values were obtained:
aTNF-Fab [1] = experiment: Acid dissociation pH by pH linear gradient chromatography on aTNF-Fab-immobilized column; type: binding; details: for Dissociation pH (pH at elution peak top): pH linear gradient from pH 5.5 to pH 2.5; for elution position in pH gradient compared with peptide without mutation: Table 3 and FIG. 2
Protocol: An affinity separation matrix on which aTNF-Fab obtained in the above Example 2 was immobilized was prepared by using a commercially available coupling column for immobilizing a ligand. The column has an amino group as a functional group for coupling.
As a water-insoluble carrier, 1 mL of a commercially available prepacked column (“Hitrap NHS activated HP” manufactured by GE Healthcare Bioscience) was used. The column contains a crosslinked agarose as a base material and an amino group is introduced as an active functional group for immobilizing a protein ligand, and a ligand was immobilized in accordance with the product manual. Specifically, 2 mL of ice-cooled 1 mM HCl was flown at a rate of 1 mL/min repeatedly three times to remove isopropanol in the column.
Then, 1 mL of a 1 mg/mL aTNF-Fab solution in a coupling buffer (0.2 MNaHCO3, 0.5 MNaCl, pH 8.3) was immediately flown at the same rate. The top and bottom of the column were stoppled, and the column was stood still at 25° C. for 30 minutes to immobilize the obtained ligand on the column.
Then, the column was opened, and 3 mL of the coupling buffer was flown at the same rate to recover the unreacted aTNF-Fab. Next, 2 mL of a blocking buffer (0.5 M ethanolamine, 0.5 M NaCl, pH 8.3) was flown repeatedly three times and 2 mL of a washing buffer (0.1 M acetic acid, 0.5 M NaCl, pH 4.0) was flown three times. Each of the above-described procedure to flow the blocking buffer and washing buffer were performed three times one after the other. Finally, 2 mL of a standard buffer (20 mM NaH2PO4—Na2HPO4, 150 mM NaCl, pH 7.4) was flown to complete the preparation of an affinity separation matrix.
By affinity purification chromatography using aTNF-Fab-immobilized column prepared in Example 3(1), an acid dissociation pH at which each modified SpG-β1# prepared in Example 1 (2) was eluted and which corresponded to the peak top of an elution curve of the modified SpG-β1# was measured. Specifically, AKTAprime plus system was used as a chromatography system. The column was equilibrated using ion exchange buffer A (50 mM citric acid-citrate Na, pH 5.5). Into the column, 0.1 mL of a protein solution containing each modified SpG-β1# in the concentration of about 0.1 mg/mL was added, and the protein was eluted with the pH linear gradient from pH 5.5 to pH 2.5. More specifically, the ion exchange buffer A and ion exchange buffer B (50 mM AcOH—AcONa, 1 M NaCl, pH 2.5) were used. […] The pH value which was specified in the experiment as the value corresponding to each elution peak top is shown in Table 3 in addition to the result of Comparative example 3.
An acid dissociation pH of GB1#-Cont.1d prepared in Comparative example 1 was measured using aTNF-Fab-immobilized carrier prepared in Example 3(1) similarly to the procedure of Example 3(2).

aTNF-Fab [2] = experiment: Affinity of modified SpG-β1# for aTNF-Fab by surface plasmon resonance (Biacore 3000); details: aTNF-Fab immobilized on CM5 sensor tip, 25° C., pH 7.4, 1:1 binding model
Protocol: A humanized monoclonal IgG product as a raw material was fragmented into a Fab fragment and a Fc fragment using papain, and only the Fab fragment was separated and purified. Specifically, anti-human TNFα monoclonal IgG (generic name: “Infliximab”, product name: “Remicade” manufactured by Mitsubishi Tanabe Pharma Corporation) was dissolved in a buffer for papain treatment (0.1 M AcOH—AcONa, 2 mM EDTA, 1 mM cysteine, pH 5.5), and agarose on which papain was immobilized (“Papain Agarose from papaya latex” manufactured by SIGMA) was added thereto. The mixture was incubated with stirring by a rotator at 37° C. for about 8 hours. The IgG-Fab was purified by recovering as a flow-through fraction in an affinity chromatography using MabSelect SuRe column (GE Healthcare Bioscience) from the reaction mixture which contained both of a Fab fragment and a Fc fragment and which was separated from the agarose on which papain was immobilized. The obtained IgG-Fab solution was subjected to purification by gel filtration chromatography using Superdex 75 10/300 GL column to obtain the solution of IgG-Fab (aTNF-Fab). In the chromatography, the standard buffer was used for equilibration and separation. Similarly to the above-described Example 1, AKTAprime plus system was used in the chromatography for peptide purification.
The affinity of each various modified SpG-β1# obtained in the above Example 1(2) for aTNF-Fab was evaluated using a biosensor Biacore 3000 (GE Healthcare Bioscience) utilizing surface plasmon resonance. In the present Example, the aTNF-Fab obtained in the above Example 2(1) was immobilized on a sensor tip, and each of the peptide was flown on the tip to detect the interaction between the two. The aTNF-Fab was immobilized on a sensor tip CM5 by amine coupling method using N-hydroxysuccinimide (NHS) and N-ethyl-N′-(3-dimethylaminopropyl)carbodiimide hydrochloride (EDC), and ethanolamine was used for blocking. All of the sensor tip and reagents for immobilization were manufactured by GE Healthcare Bioscience. The aTNF-Fab solution was diluted about 10 times using a buffer for immobilization (10 mM AcOH—AcONa, pH 4.5), and the aTNF-Fab was immobilized on the sensor tip in accordance with the protocol attached to the Biacore 3000. In addition, a reference cell as negative control was also prepared by activating another flow cell on the tip with EDC/NHS, immobilizing nothing and blocking with ethanolamine. Peptide solutions of each various modified SpG-β1# having concentrations of 0.01, 0.1, 1 or 10 μM were prepared using a running buffer (20 mM NaH2PO4—Na2HPO4, 150 mM NaCl, 0.005% P-20, pH 7.4). The peptide solution was added to the sensor tip in a flow rate of 40 μL/min for 1 minute. Bonding response curves at the time of addition (association phase, for 1 minute) and after the addition (dissociation phase, for 1 minute) were sequentially obtained at a measurement temperature of 25° C. After each measurement, the cells were washed using about 20 mM NaOH. The bonding response curve obtained by subtracting the bonding response curve of the reference cell was subjected to fitting analysis by a binding model of 1:1 using a software BIA evaluation attached to the system, and affinity constant (KA=kon/koff) to aTNF-Fab was calculated. The result is shown in Table 2 with each binding parameter of GB1#-Cont.1d, which parameter was measured in Comparative Example 2.
An affinity of GB1#-Cont.1d prepared in Comparative example 1 for aTNF-Fab prepared in Example 2(1) was evaluated similarly to the procedure of Example 2(2).

Substance	Dissociation pH (pH at elution peak top) (aTNF-Fab [1])	KA (affinity constant, KA=kon/koff) (aTNF-Fab [2])	koff (aTNF-Fab [2])	kon (aTNF-Fab [2])	elution position in pH gradient compared with peptide without mutation (aTNF-Fab [1])
GB1#-Cont.1d: modified SpG-β1 of SEQ ID NO: 1 with improved binding capability to Fab; peptide before substitution mutation, Comparative example (TTYKLILNGKTLTGYTTAIAADAATAEIVLKQFANDNGIDGEWTYDDATKTFTVTE; Immunoglobulin-binding peptide) [reference compound]	2.60	2.45 ×10^6 [M^−1]	1.70 ×10^−2 [s^−1]	4.17 ×10^4 [M^−1s]	–
GB1#-D36V.1d: modified SpG-β1# single domain with mutation D36V; amino acid SEQ ID NO: 19 (TTYKLILNGKTLTGYTTAIAADAATAEIVLKQFANVNGIDGEWTYDDATKTFTVTE; GB1#-mutant)	3.40	0.51 ×10^6 [M^−1]	6.40 ×10^−2 [s^−1]	3.28 ×10^4 [M^−1s]	eluted earlier than GB1#-Cont.1d
GB1#-T17A.1d: modified SpG-β1# single domain, SEQ ID NO: 1 with Thr at 17th position substituted by Ala; amino acid SEQ ID NO: 17 (TTYKLILNGKTLTGYTAAIAADAATAEIVLKQFANDNGIDGEWTYDDATKTFTVTE; GB1#-mutant)	2.85	0.88 ×10^6 [M^−1]	2.85 ×10^−2 [s^−1]	2.50 ×10^4 [M^−1s]	eluted earlier than GB1#-Cont.1d
GB1#-T17V.1d: modified SpG-β1# single domain with mutation T17V; amino acid SEQ ID NO: 18 (TTYKLILNGKTLTGYTVAIAADAATAEIVLKQFANDNGIDGEWTYDDATKTFTVTE; GB1#-mutant)	3.00	0.57 ×10^6 [M^−1]	3.35 ×10^−2 [s^−1]	1.91 ×10^4 [M^−1s]	eluted earlier than GB1#-Cont.1d

From patent US10774115B2, “Modified Fab region-binding peptide” (Kaneka Corporation, priority 2015, dated 2020)
